The values that follow come from patent US6413999B1, “Treatment for acute physical insult to the central nervous system” (University of Saskatchewan Technologies Inc., priority 1999, dated 2002).

Holding throughout (format): in vivo, rat
Data set [1] can be described thus: Body weight after spinal cord clip compression injury. The following applies: T6 clip compression; OTC 12 mmoles/kg i.p. 30 min after injury, then 4 mmoles/kg every 12 h for five days; pre-surgery 328.3±4.2 g; saline 403.9±9.5 g; P=0.0337. The protocol: Adult male Wistar rats (˜320 g) were obtained from Charles River Canada and housed in a temperature-regulated animal facility, exposed to a 12 hour light/dark cycle and had free access to food and water. Animals were treated in accordance with the guidelines of the Canadian Council on Animal Care. Prior in surgery, the rats received the analgesic Buprenorphine-hydrochloride subcutaneously at a dose of 0.05 mg/kg and then every 12 hours for the first 72 hours following surgery. Anesthesia was performed with Halothane (5% induction and 1% maintenance). Laminectomy was performed aseptically at T5-T6 to expose the spinal cord. A 5-second clip compression injury was induced at the T6 spinal cord level using a modified Kerr-Lougheed aneurysm clip with a calibrated force of 50 g as described in Rivlin et al. (Surg. Neurol., 9, 39-43, 1979) and Khan et al. (Can. J. Neurol. Sci., 10, 161-165, 1983). For delivery of drug or saline vehicle a sterile catheter was placed subcutaneously running from the dorsum to enter the peritoneal cavity ventrally; this was done before the laminectomy was performed. Thirty minutes following spinal cord compression an initial dose of OTC or phosphate-buffered saline vehicle (“saline”) was delivered intraperitoneally and then subsequent doses were administered every 12 hours for the next five days. […]

Data set [2] deals with Wistar rats with clip compression injury at the T6 spinal cord level. The experiment in a line: Spinal cord GSH content after 50 g clip compression injury at T6. The following applies: 26 hours following injury and 2 hours following OTC administration; versus saline P=0.0033; FIG. 4. The method, then: (§1) Adult male Wistar rats (˜320 g) were obtained from Charles River Canada and housed in a temperature-regulated animal facility, exposed to a 12 hour light/dark cycle and had free access to food and water. Animals were treated in accordance with the guidelines of the Canadian Council on Animal Care. Prior in surgery, the rats received the analgesic Buprenorphine-hydrochloride subcutaneously at a dose of 0.05 mg/kg and then every 12 hours for the first 72 hours following surgery. Anesthesia was performed with Halothane (5% induction and 1% maintenance). Laminectomy was performed aseptically at T5-T6 to expose the spinal cord. A 5-second clip compression injury was induced at the T6 spinal cord level using a modified Kerr-Lougheed aneurysm clip with a calibrated force of 50 g as described in Rivlin et al. (Surg. Neurol., 9, 39-43, 1979) and Khan et al. (Can. J. Neurol. Sci., 10, 161-165, 1983). […]
(§2) A total of 54 animals were used to determine the onset of oxidative stress following insult. […] Spinal cord segments were frozen in liquid nitrogen and stored at −80° C. until analyzed.
GSH was measured using 5,5′-dithio-bis(2-nitrobenzoic) acid-derivatization (“DTNB”) followed by HPLC and UV detection. […] The homogenates were centrifuged at 10,000 g for 15 min and supernatants collected, derivatized and analyzed using the Shimadzu reversed-phase HPLC with ultraviolet detection. […]

The test system is the same in data set [3]. The experiment in a line: Spinal cord glutathione reductase activity after clip compression injury at T6. The following applies: 24 hours following spinal cord injury; T5 (P<0.05), T6, T7, T9 (P<0.01) versus saline vehicle; FIG. 2. The method, then: as §1, §2
Glutathione reductase was calculated by measuring the disappearance of NADPH (SIGMA (trade-mark)) in the presence of oxidized-glutathione based upon the procedure described by Eklow et al. (Eur. J. Biochem. 138, 459-463 (1984)), as applied in Juurlink et al (Glia 22, 371-378, 1998)).

Data set [4] has the same test system. Description: Spinal cord protein carbonyl content after clip compression injury at T6. The settings on record: 24 hours post-trauma; T5 (P<0.05), T6, T7 (P<0.01), T9 (P<0.05) versus saline; FIG. 3. The protocol: as §1, with “cord.” for “cord. A 5-second clip compression injury was induced at the T6 spinal cord level using a modified Kerr-Lougheed aneurysm clip with a calibrated force of 50 g as described in Rivlin et al. (Surg. Neurol., 9, 39-43, 1979) and Khan et al. (Can. J. Neurol. Sci., 10, 161-165, 1983).”
as §2
Protein carbonyl content was determined spectrophotometrically using 2,4-dinitrophenylhydrazine (DNPH) to trap carbonyls with the adduct formed measured at 360 nm. Results are expressed as pmoles of DNPH incorporated per mg of protein calculated using a molar absorption coefficient of 22,000 M^−1 cm^−1 for aliphatic hydrazones.

Data set [5] concerns rats with acute physical insult to the CNS. The experiment in a line: Inflammation (observation, ICAM-1 and iNOS levels) following insult. The settings on record: OTC following insult, compared to saline-treated controls. The method, then: Inflammation was assessed by observation and by measurement of ICAM-1 and iNOS levels. A significant increase in inflammation was observed following insult.

In data set [6] the test system is Wistar rats with clip compression injury at the T6 spinal cord level. The experiment in a line: Functional recovery after spinal cord compression (angleboard, modified Tarlov score, BBB scale). The protocol:
as §1, with “cord.” for “cord. A 5-second clip compression injury was induced at the T6 spinal cord level using a modified Kerr-Lougheed aneurysm clip with a calibrated force of 50 g as described in Rivlin et al. (Surg. Neurol., 9, 39-43, 1979) and Khan et al. (Can. J. Neurol. Sci., 10, 161-165, 1983).”
A semiquantitative assessment of hindlimb function during open field walking gas performed using the modified Tarlov score (Tariq et al.). Spontaneous activity of hind limb was scored as follows: 0=total paraplegia of hindlimbs; 1=no spontaneous movements but responds to hindlimb pinch; 2=spontaneous movement; 3=able to support weight but unable to walk; 4=walks with gross deficit; 5=walks with mild deficit on broad flat surface, 6=able to walk on broad flat surface and support weight on a 1.8 cm wide ledge; 7=walks on ledge. […]

Data set [7] has the same test system. Description: Spinal cord histomorphometry (luxol fast blue white matter) 6 weeks after injury. The method, then:
as §1, with “cord.” for “cord. A 5-second clip compression injury was induced at the T6 spinal cord level using a modified Kerr-Lougheed aneurysm clip with a calibrated force of 50 g as described in Rivlin et al. (Surg. Neurol., 9, 39-43, 1979) and Khan et al. (Can. J. Neurol. Sci., 10, 161-165, 1983).”
Following 6 weeks of behavioral evaluation, the spinal cords were fixed by transcardial perfusion with 0.03M phosphate-buffered saline (pH 7.4) containing 1% sodium nitrite in rats anesthetized with Halothane, followed by perfusion (100 ml/100 g) with either 4% formaldehyde (freshly prepared from paraformaldehyde) or FAM solution (formaldehyde, acetic acid and methanol in 1:1:8 ratio) and left in the same fixative for 5 days. […] Area of white matter was quantified using Northern Eclipse™ software and expressed in pixels.

Data set [8] concerns rats with unilateral carotid artery ligation and 12% oxygen atmosphere. The experiment in a line: Vascular event model (unilateral carotid artery ligation plus 12% oxygen): brain damage and GSH. The method, then: Nine to eleven week old rats were obtained and housed as described in Example 1A. Animals were treated in accordance with the guidelines of the Canadian Council on Animal Care.
The rats were randomly divided into two groups. Both groups of rats underwent unilateral carotid artery ligation and were then subjected to a 12% oxygen atmosphere for 35 minutes. Fifteen minutes after insult, rats of one group received an initial dose of OTC (12 mmoles/kg body weight) and rats of the other group receive the phosphate-buffered saline vehicle (“saline”). Rats received subsequent doses of OTC (4 mmoles/kg body weight) or saline, as appropriate, every 12 hours for 3 days.
Rats were sacrificed 1 week following insult and brain damage was assessed.
Brain damage following a vascular event was assessed using the method of Thornhill, et al. (Brain Res. 825(1-2):36-45 (1999).

As to `O=C1N[C@H](C(=O)O)CS1` [OTC, L-2-oxothiazolidine-4-carboxylate], the “weight of animals 6 weeks after surgery” value in data set [1] came to 434.3 ± 9.3 g. Further, the “GSH levels in the affected CNS region” value in data set [2] is on record as “increased GSH levels”. Besides, the “glutathione reductase activity in spinal cord” value in data set [3] is “significantly inhibited the decrease in glutathione reductase activity”. Moreover, the “protein carbonyl content in spinal cord” value in data set [4] was “significantly decreased protein carbonyl formation”. In addition, the “levels of inflammation (ICAM-1 and iNOS)” value in data set [5] is given as “lower levels of inflammation”. For the same compound, in data set [6] (6 weeks after trauma, scale 0-7, after trauma 1, saline 2.4, FIG. 8a), the “modified Tarlov score” value is on record as 4.1. The angleboard capacity angle in data set [6] (6 weeks recovery, before insult 59°, after insult 28°, saline 32°, FIG. 7) is listed as 42 °. The “grey matter sparing at T6” value in data set [7] is listed as “did not result in grey matter sparing”. For the same compound, the brain damage score in data set [8] (1 week following insult, OTC 12 mmoles/kg 15 min after insult, then 4 mmoles/kg every 12 h for 3 days, saline score 2.67, FIG. 9) is listed as 1.86. The “concentrations of GSH in the affected CNS regions” value in data set [8] (insult by a vascular event, compared to saline-treated animals) was “higher concentrations of GSH”.
